Laboratory results as given in patent US20100130597A1, “DNA-PKCS MODULATES ENERGY REGULATION AND BRAIN FUNCTION” (The United State of America, as represented by the …, priority 2007, published 2010).
pIC50: −log10 of the molar value.

Tests used:
MCF7 cells = assay: Reactive oxygen species production in MCF7 cells (CM-H2DCFDA); type: cell-based; settings: for Reactive oxygen species production: NU 7026 5 μM 12 h, DNP 200 μM 10 min, Troglitazone 30 μM 4 hr, Euk-134 5 μM 3 h, MnTBAP 14 μM 3 h, FIG. 4
Source text: Measurement of intracellular reactive oxygen species was based on changes in the fluorescence intensity of redox-sensitive fluorescent probes, including CM-H2DCFDA. CM-H2DCFDA is a probe for intracellular hydrogen peroxide (Jou M J et al. J. Biomed Sci 9:507 (2002)). CM-H2DCFDA rapidly diffuses into cells, reacts with intracellular glutathione and thiols, and yields a fluorescent product that is retained inside the cell (Shanker G et al. Mol Brain Res 128:48, 2004). The fluorescence intensity of CM-H2DCFDA is therefore indicative of the amount of intracellular H2O2.
Briefly, cells were incubated with 10 uM CM-H2DCFDA for 30 min at 37° C. The cells were then excited at the peak excitation wavelength for CM-H2DCFDA (485 nm) and emissions at 535 nm were measured with Wallac Victor multilable counter (Perkin Elmer). For glucose treatment, the total sugar content in the media was kept constant by supplementing with mannitol, which is not metabolized.
MCF-7 cells were obtained from ATCC and grown as recommended. Confluent MCF-7 cells were incubated with serum-free DMEM medium for 3-12 h before the experiment. MCF-7 cells were then treated with DNA-PK inhibitor NU 7026 (5 μM; Calbiochem) for 12 h, DNP (200 μM; Sigma) for 10 min, Troglitazone (30 μM) for 4 hr, Euk-134 (5 μM; Eukarion) for 3 h, MnTBAP (14 μM; Calbiochem) for 3 h and Resveratrol.

neurons = settings: low concentrations; De Felice et al. 2001; cited from earlier work
DNA-PKcs = biological target: T1, DNA-PKcs (Homo sapiens, UniProt P78527); assay: DNA-PKcs activation in MCF7 cells, immunoblot for phosphorylated Ser2056; type: cell-based; settings: for DNA-PKcs activation in the presence of 25 mM glucose: MCF7 cells, FIG. 5
T1 construct: endogenous in cells; host or cells: MCF7 (ATCC)
Description: MCF7 cells were obtained from the ATCC. MCF7 cells in G0 were treated with varying doses of H2O2 (FIG. 1). The cells were examined while in the G0 phase of their life cycle to mimic the post-mitotic state of cells in vivo. Low passage MCF-7 cells in G0 were exposed to varying concentrations of H2O2 for 60 minutes with or without Euk-134 or ionizing radiation (5 Gy). For Western blot analysis of DNA-PKcs activation and the activation of other signaling pathways in this study, the following antibodies were used: ACC1 (Cell Signaling); p-ACC1 (Upstate); AMP-activated protein kinase (AMPK; Cell Signaling); p-AMPK(T172) (Cell Signaling); DNA-PK (Lab Vision); p53 (Novocastra); p-DNA-PK(S2056) (Abeam); p-p53(S15) (Cell Signaling); γ-H2AX (Upstate); 53BP1 (Novus Biologicals).
Activation of DNA-PKcs was visualized by immunoblotting cell lysates with antibody specific for phosphorylated Ser2056, which is autophosphorylated during DNA-PKcs activation (Chen et al., J. Biol. Chem. 280: 14709-15 (2005)) (FIG. 1). […] Instead, H2O2 increased DNA-PKcs activation, and such activation was abrogated by the antioxidant Euk-134 (FIG. 1), a potent synthetic superoxide dismutase and catalase mimetic (Chatterjee, Am. J. Nephrol. 24: 165-77 (2004)).
MCF7 cells were then cultured in 25 mM glucose. Aliquots of the cultured MCF7 cells were treated with ionizing radiation and/or the DNA-PKcs-specific inhibitor NU7026. Treatment with glucose and ionizing radiation increased DNA-PKcs phosphorylation (data not shown). […] The basal activity of DNA-PKcs in MCF-7 cells in 25 mM glucose was detectable even in the absence of ionizing radiation, but this basal activity was suppressed with the DNA-PKcs-specific inhibitor NU7026 (data not shown).

[1] = Hot plate test, latency for pain reaction; type: in vivo, mice; settings: data not shown
Description: Epidemiological studies indicate that people with mood disorders are twice as likely to have chronic pain compared to people without mood disorders (Ohayon et al., Arch. Gen. Psychiatry 60: 39-47 (2003)). Although it is possible that pain contributes to the depressed mood, it is also possible that perception of pain is increased in people with mood disorders. To determine whether SCID mice have altered pain tolerance, the latency for pain reaction to a hot plate was measured. […] (FIG. 30) and at 55° C.
Because tolerance to pain (Example 26) is also linked to the serotonergic pathways, measurements of the latency to pain reaction on hot plate after saline, serotonin reuptake inhibitor fluoxetine (Prozac) or serotonin antagonist GR38032F (Zofran) injection were made.
(§1) Elevated plus maze tests, light/dark chamber tests, forced swim tests (FST) and hot plate tests were performed as described earlier.

Elevated plus maze test = type: in vivo, mice; settings: SCID mice, intraperitoneal injection, FIG. 33
Description: To evaluate whether SCID mice may also have altered anxiety, fear and depression-like traits, an elevated plus maze test was performed, which is a commonly used test to quantify the level of anxiety- and depression-like traits in rodents (Pellow et al. J. Neurosci. Methods 14: 149-67 (1985)). The elevated plus maze has narrow runways that are located 16 inches above the surface that are either closed or open. The animal is placed in the center of an elevated 4-arm maze in which 2 arms are open and 2 are enclosed. Mice generally avoid the open arms because of their fear of open space and height. The elevated plus-maze is used to determine the rodent's response to a potentially dangerous environment and anxiety-related behavior is measured by the degree to which the rodent avoids the unenclosed arms of the maze. Increase in the number of times the animal enters the open arm and the amount of time spent in the open arms reflect decreased anxiety and depression.
as §1

DNA-PK = DNA-PK (Homo sapiens, UniProt P78527); settings: Hardcastle et al., J. Med. Chem. 48: 7829-46 (2005); read-out: IC50 against DNA-PK; cited from earlier work
C2C12 cells = assay: Mitochondrial DNA copy number in C2C12 cells; type: cell-based; settings: C2C12 myoblasts, FIG. 49C
Description: Quantitative Real-Time PCR was used to assess the relative amounts of nuclear DNA and mtDNA, to permit assessment of the ratio of mtDNA to nucleic DNA, which reflects the tissue concentration of mitochondria per cell. Muscle tissues were homogenized and digested with Proteinase K overnight in a lysis buffer for DNA extraction by conventional phenol-chloroform method. Quantitative PCR was performed using the following primers: […]
Increased mitochondrial function boosts energy production and physical endurance. […] Further tests were therefore conducted to ascertain whether DNA-PKcs inhibitor elevates mitochondrial biogenesis and expression of PGC-1α and Sirt, which are important for mitochondrial biogenesis. […] It is important to note that only 2.5 μM of NU7026 was required to induce a similar level of Sirt1 to that induced by 25-50 μM Resveratrol, a well-known, potent Sirt1 activator. In FIG. 49C, mitochondrial DNA copy number increased (>1.8 fold) in C2C12 cells after 2.5 μM NU7026 treatment.

Sirt1 and PGC-1α = Sirt1 and PGC-1α expression in C2C12 myoblasts; type: cell-based
Description: Increased mitochondrial function boosts energy production and physical endurance. […] Further tests were therefore conducted to ascertain whether DNA-PKcs inhibitor elevates mitochondrial biogenesis and expression of PGC-1α and Sirt, which are important for mitochondrial biogenesis. […] It is important to note that only 2.5 μM of NU7026 was required to induce a similar level of Sirt1 to that induced by 25-50 μM Resveratrol, a well-known, potent Sirt1 activator.

LKB1 = LKB1 activation (LKB1 phosphorylation) in C2C12 cells; type: cell-based; settings: NU7026 2.5 μM, Resveratrol 50 μM, FIG. 51A
Description: Cells were treated with DNA-PKcs inhibitors to ascertain whether DNA-PKcs suppresses LKB1 activity in vitro.

[2] = ROS levels in tissues of ob/ob mice; type: in vivo; settings: FIG. 38
[3] = in vitro; cited from earlier work
[4] = middle cerebral artery ligation; Baker et al. 1998; cited from earlier work
[5] = rats, systemic administration of kainic acid; Rong et al. 1999; cited from earlier work
[6] = Treadmill running endurance; type: in vivo, mice; settings: ob/ob mice, FIG. 39
Description: Previous studies have shown that increased expression of PPARδ or PGC-1α in skeletal muscle decreases exercise-induced fatigue. Therefore, tests were performed to ascertain what was the physical endurance of 4, 7 and 14 month-old SCID and WT mice using treadmill running. Prior to the exercise test, the mice were accustomed to and trained by running on an Exer-3/6 mouse treadmill (Columbus Instruments) at 7 m/min for 5 minutes for 3 days. For the endurance test, the treadmill speed was increased to 10 m/min and mice were allowed to run until exhaustion.
The therapeutic potential of DNA-PKcs inhibitors to reverse physical decline with aging was tested. In particular, the physical endurance of obese and middle-aged mice treated with Cpd36 was examined by treadmill running. Obese mice fed a high-fat diet that were treated with Cpd36 were able to run 40-50% farther over a given period of time than the control mice fed the same high fat diet (FIG. 45), as measured by totaling the distance run on a treadmill. Middle-aged mice (13 months) fed a breeder diet who were similarly treated with Cpd36 were also able to run 40-50% farther than middle aged mice that received no such treatment (data not shown).

Molecule: Cc1c(C)c2c(c(C)c1O)CCC(C)(COc1ccc(CC3SC(=O)NC3=O)cc1)O2 (racemic) [TZD, (±)-[[4-[(3,4-dihydro-6-hydroxy-2,5,7,8-tetramethl-2H-1-benzopyran-2-yl)methoxy]phenyl]methyl]-2,4-thiazolidinedione]
- Reactive oxygen species production (MCF7 cells): significantly decreased

Molecule: O=[N+]([O-])c1ccc(O)c([N+](=O)[O-])c1 [DNP, 2,4-dinitrophenol]
- protection of neurons against amyloid-beta peptide toxicity (neurons): protect neurons against the toxicity of the amyloid-beta peptide
- Reactive oxygen species production (MCF7 cells): significantly decreased
- DNA-PKcs activation in the presence of 25 mM glucose (DNA-PKcs): decreased DNA-PKcs activation

Molecule: CNCCC(Oc1ccc(C(F)(F)F)cc1)c1ccccc1 (stereo not drawn) [Fluoxetine]
- latency for pain reaction on hot plate ([1]; wild-type mice): increased the latency for pain reaction in wild-type mice

Molecule: Cc1nccn1CC1CCc2c(c3ccccc3n2C)C1=O.Cl (stereo not drawn) [GR38032F]
- number of SCID mice that stayed in the open arm 30 sec or longer (Elevated plus maze test): decreased dramatically
- latency for pain reaction on hot plate ([1]; SCID mice): decreased the latency for pain reaction in SCID mice
- latency for pain reaction on hot plate ([1]; wild-type mice): not wild-type mice

Molecule: O=c1cc(N2CCOCC2)oc2c(-c3cccc4c3sc3ccccc34)cccc12 [NU7441, 8-dibenzothiophen-4-yl-2-morpholin-4-yl-chromen-4-one]
- pIC50 (DNA-PK): 7.89

Molecule: Oc1ccc(/C=C/c2cc(O)cc(O)c2)cc1 [Resveratrol]
- relative copy number of mitochondrial DNA (C2C12 cells): increases
- concentration required to induce a similar level of Sirt1 (Sirt1 and PGC-1α): 25 to 50 µM
- PGC-1α and Sirt1 expression (Sirt1 and PGC-1α; FIG. 49): increased
- Reactive oxygen species production (MCF7 cells): significantly decreased
- DNA-PKcs activation in the presence of 25 mM glucose (DNA-PKcs): decreased DNA-PKcs activation
- LKB1 activation (LKB1 phosphorylation) (LKB1): showed LKB1 activation

Molecule: CN(C)C(=N)NC(=N)N [metformin]
- DNA-PKcs activation in the presence of 25 mM glucose (DNA-PKcs): decreased DNA-PKcs activation

Molecule: Euk-134
- ROS production in muscle, WAT and heart tissues [2]: decreased ROS production
- hydrogen peroxide consumption [3]: consumes hydrogen peroxide in vitro
- Reactive oxygen species production (MCF7 cells): significantly decreased
- glucose-induced reactive oxygen species production (MCF7 cells; glucose 0-25 mM, 3 hr, FIG. 2): partially suppressed
- H2O2-induced DNA-PKcs activation (DNA-PKcs; MCF7 cells in G0, H2O2 60 minutes, FIG. 1): abrogated
- DNA-PKcs activation in the presence of 25 mM glucose (DNA-PKcs): decreased DNA-PKcs activation
- effect in rat stroke model [4]: protective effects
- oxidative stress and brain damage [5]: prevent oxidative stress and attenuate brain damage
- treadmill running ability [6]: increased running ability of ob/ob mice dramatically

Molecule: Manganese (III) tetrakis(4-benzoic acid)porphyrin [MnTBAP]
- Reactive oxygen species production (MCF7 cells): significantly decreased
- DNA-PKcs activation in the presence of 25 mM glucose (DNA-PKcs): decreased DNA-PKcs activation
